Measurements published in patent publication US20230293519A1, “INTEGRIN INHIBITORS AND USES THEREOF IN COMBINATION WITH OTHER AGENTS” (Pliant Therapeutics, Inc., priority 2021, published 2023).
“Also recorded” adds a separate entry of the source.

Key:
[1] = Unbound plasma concentration in the PET/CT study; format: in vivo; conditions: human
Method: This Example was conducted as an open-label, single-dose (60 mg, 120 mg, 240 mg or 320 mg) clinical trial evaluating αvβ6 receptor occupancy in the lungs, safety, and pharmacokinetics of Compound #5 in subjects with IPF. To date, 4 participants have completed the study. Each of these 4 participants was undergoing a pre-existing course of therapy using one of the SoC (Standard of Care) compounds, nintedanib. These participants continued their pre-existing nintedanib therapy throughout this study. Knottin tracer uptake kinetics were compared pre- and post-dose of the disclosed compound, as measured by standardized uptake values (SUVs) and parameters estimated from kinetic modeling in regions-of-interest on dynamic [^18F]FP-R01-MG-F2 PET/CT scans. […] Receptor occupancy was estimated from the output of the two-compartment model (VT, the […]) using standard equations and fitting algorithms, and corrections for VND (non-displaceable tracer binding). For example, in FIG. 10, the data points, shown as circles, are modeled by the following formula: […]
FIG. 9 is a graph of unbound plasma concentration (X-axis) vs Vt (Y-axis) for the baseline Vt at each dose, the measured Vt after each dose, and a fit line. FIG. 10 is a graph of unbound plasma concentration (X-axis) vs % receptor occupancy (Y-axis). FIG. 11 is a bar chart showing % target engagement for each subject and dose.

COL1A1 expression = test: PCLS from human IPF lung tissue, 7 days: COL1A1 expression; format: cell-based
Method: PCLS from 5-7 idopathic pulmonary fibrosis (IPF) lung tissue samples were cultured for seven days with one of: DMSO; Compound 5 at 200 nM; nintedanib at 75 nM; pirfenidone at 50 µm; a combination of Compound 5 at 200 nM and nintedanib at 75 nM; a combination of Compound 5 at 200 nM and pirfenidone at 50 µm; or an Alk5 inhibitor at 1 µm. […] FIG. 6D is a bar graph showing relative expression of COL1A1 in precision cut lung slices (PCLS) from idopathic pulmonary fibrosis (IPF) lung tissue upon exposure to Comopund 5, clinical standard of care compounds nintedanib (Nin) and pirfenidone (Pirf), and an ALK5 inhibitor, all versus DMSO control.
PCLS from a single IPF lung tissue sample were cultured for seven days with Compound 5 at concentrations of 200 pM, 2 nM, 60 nM, 200 nM, and 1 µM, along with 0.1% DMSO control and an Alk5 inhibitor at 1 µM. […] COL1A1 expression is also graphed for the PCLS in the presence of 0.1% DMSO control, and an Alk5 inhibitor at 1 µM.

[2] = system: patients with idiopathic pulmonary fibrosis (IPF); test: Phase 2a trial in IPF: FVC, QLF, biomarkers; format: in vivo, human; conditions: for proportion of patients with ≥10% decline in FVCpp: 12 weeks
From the text: The exploratory endpoints of the trial measured changes in forced vital capacity (FVC), HRCT-based Quantitative Lung Fibrosis score (QLF), and selected biomarkers over 3 months of treatment.

## COCCN(CCCCc1ccc2c(n1)NCCC2)CC[C@H](Nc1ncnc2ccccc12)C(=O)O [Compound 5, (S)-4-((2-methoxyethyl)(4-(5,6,7,8-tetrahydro-1,8-naphthyridin-2-yl)butyl)amino)-2-(quinazolin-4-ylamino)butanoic acid]
[1]; 60 mg, Subject A00, 60 mg single dose
  concentration at 4 h: 3.66 nM
[1]; 120 mg, Subject B120, 120 mg
  concentration at 4 h: 10 nM
[1]; 240 mg, Subject B240, 240 mg
  concentration at 4 h: 58.3 nM
[1]; 240 mg, Subject C240, 240 mg
  concentration at 4 h: 103 nM
[1]; 320 mg, Subject D320, 320 mg
  concentration at 4 h: 33.6 nM
[1]; Subject C320, 320 mg
  concentration at 4 h: 96.5 nM
COL1A1 expression; Compound 5 200 nM, nintedanib 75 nM, pirfenidone 50 µM, 5-7 IPF lungs
  reduction of COL1A1 expression: 43%
COL1A1 expression; single IPF lung, 200 pM to 1 µM tested
  concentration with significant reduction of COL1A1 expression: ≥ 2 nM
COL1A1 expression; single IPF lung, Compound 5 ≥ 2 nM
  reduction in COL1A1 expression at concentrations with significant effect: ≥ 47%
[2]; 40 mg (N=5)
  LS Mean change from baseline in FVC at week 12, not on SoC subgroup: -43.1 mL
[2]; 40 mg (N=15)
  Mean Percent Change in QLF extent from baseline to Week 12: 3.15%
[2]; 40 mg (N=17)
  LS Mean change from baseline in FVC at week 12, on SoC subgroup: -58.3 mL
[2]; 40 mg dose group
  change in FVC from baseline to Week 12: -46.1 mL
  reduction in FVC decline relative to placebo: 38%
[2]; 40 mg group
  proportion of patients with ≥10% decline in FVCpp: 18.2%
[2]; 80 mg (N=4)
  LS Mean change from baseline in FVC at week 12, not on SoC subgroup: +138.1 mL
[2]; 80 mg (N=18)
  Mean Percent Change in QLF extent from baseline to Week 12: 0.70%
[2]; 80 mg (N=19)
  LS Mean change from baseline in FVC at week 12, on SoC subgroup: -11.9 mL
[2]; 80 mg dose group
  change in FVC from baseline to Week 12: +24.6 mL
[2]; 80 mg group
  proportion of patients with > 2% increase in QLF at 12 weeks: 11%
  proportion of patients with ≥10% decline in FVCpp: 8.7%
[2]; 160 mg (N=14)
  Mean Percent Change in QLF extent from baseline to Week 12: 0.00%
[2]; 160 mg (n=3)
  LS Mean change from baseline in FVC at week 12, not on SoC subgroup: +25.8 mL
[2]; 160 mg (n=19)
  LS Mean change from baseline in FVC at week 12, on SoC subgroup: -47.5 mL
[2]; 160 mg dose group
  change in FVC from baseline to Week 12: -25.1 mL
  reduction in FVC decline relative to placebo: 66%
[2]; 160 mg group
  proportion of patients with a decrease in QLF (>2% change) at 12 weeks: 26.7%
  proportion of patients with stable QLF (-2 to 2% change) at 12 weeks: 46.6%
  proportion of patients with ≥10% decline in FVCpp: 4.5%
[2]; not significant
  serum PRO-C3 (type III collagen synthesis) change from baseline vs placebo: decreased; also recorded: reduced
  serum PRO-C6 (type VI collagen synthesis) change from baseline vs placebo: decreased; also recorded: reduced
[2]; pooled Compound 5 groups
  change in FVC from baseline to Week 12: -15.1 mL
